Measurements taken from patent US11807693B2 (priority 2014, dated 2023).
Like-named read-outs stand apart in the source and are kept apart here. Positions of bridges follow the written chain, without caps; N, C: chain ends. Non-standard residues stand in square brackets, D forms with d. Residues, ends and D or L forms follow the SMILES beside them. No end group written: not given here. dBip = N[C@H](Cc1ccc(-c2ccccc2)cc1)C(=O)O; Oic = O=C(O)[C@@H]1C[C@@H]2CCCC[C@@H]2N1; Phe(4-Cl) = N[C@@H](Cc1ccc(Cl)cc1)C(=O)O; Phe(4-I) = N[C@@H](Cc1ccc(I)cc1)C(=O)O; NMeR = CN[C@@H](CCCNC(=N)N)C(=O)O; hArg = N=C(N)NCCCC[C@H](N)C(=O)O; Cha = N[C@@H](CC1CCCCC1)C(=O)O; NMeL = CN[C@@H](CC(C)C)C(=O)O; Nle = CCCC[C@H](N)C(=O)O; Aib = CC(C)(N)C(=O)O

What was measured:
liver homogenate = conditions: rat, 37° C., up to 4 hr
Human Mast Cells = test: Mast cell degranulation (histamine release), human mast cells; assay type: cell-based; conditions: human mast cells derived from CD34+ peripheral blood cells; 0.005 to 30 μM, 37° C., 30 min; less than 30% of total histamine content = negative
Experimental: Mast cell degranulation was measured for a number of the modified apelin polypeptides as follows in order to determine the potential immunogenic effect of the peptides. Mast cell degranulating peptide (MCDP) and compound 48/80 were used as positive controls. MCDP was obtained from Alomone Labs (Israel). Compound 48/80 was obtained from Sigma (Saint Louis, […].). Histamine Elisa kit was obtained from NEOGEN (Lexington, Ky.). Tyrode's buffer was obtained from Sigma (#T2397).
Mature human mast cells were derived from CD34+peripheral blood precursor cells after an 8-12 week differentiation/maturation process in vitro. […] Mast cell maturation was confirmed via expression of the mast cell markers c-kit and FcεRI via flow cytometry (>75% positive) and histamine release.
Mast cells (human or rat) were washed in Tyrode's buffer and seeded on 96-well plates (approx. 2000 mast cells/well). A 10 point dilution of test compounds were prepared in Tyrode's buffer and were incubated (0.005 to 30 μM) with mast cells at 37° C. for 30 min. […] A mast cell surfactant control is compared to a mast cell Tyrode's buffer control to ensure surfactants are not inducing histamine release in the absence of the lipidated molecule. Histamine release was quenched by placing the plates on ice for 5 min. Cells were centrifuged at 350×g at 4° C. for 5 min and the supernatant was collected. Released histamine was quantified by ELISA (Neogen Corporation) as per the kits' instruction. Briefly, the absorbance was measured at 650 nm in a microplate reader, following a direct competitive ELISA reaction with test samples compared against a standard curve. Total histamine content of the cells (0.1% Triton X-100) and spontaneous release were also measured to determine the percent of histamine release. Percent histamine release was calculated by the following formula: % histamine release=(ng/ml histamine release by test article−ng/ml spontaneous histamine release in Tyrode's buffer)/(ng/ml total histamine content of cells lysed in 0.1% Triton X-100−ng/ml spontaneous histamine release in Tyrode's buffer)×100.

[1] = test system: Rat Peritoneal Mast Cells
rat APJ receptor = biological target: T1, rat APJ receptor (Rattus norvegicus, UniProt Q9JHG3); test: [35S] GTPγS assay, rat APJ receptor; assay type: biochemical; conditions: read-out: EC50 Rat APJ Receptor
T1 construct: expressed in transfected cells
T1 sequence (Q9JHG3 1-377): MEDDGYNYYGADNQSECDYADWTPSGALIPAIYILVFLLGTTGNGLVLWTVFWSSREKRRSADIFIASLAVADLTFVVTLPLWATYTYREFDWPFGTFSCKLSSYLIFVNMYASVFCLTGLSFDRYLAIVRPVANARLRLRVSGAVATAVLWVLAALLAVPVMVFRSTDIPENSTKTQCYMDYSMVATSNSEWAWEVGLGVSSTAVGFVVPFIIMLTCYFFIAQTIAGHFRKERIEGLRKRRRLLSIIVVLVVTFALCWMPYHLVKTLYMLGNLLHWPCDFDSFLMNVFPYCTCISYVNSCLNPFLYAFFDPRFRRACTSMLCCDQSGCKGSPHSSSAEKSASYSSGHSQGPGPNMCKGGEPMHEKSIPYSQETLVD
Experimental: The membranes were incubated with modified peptides in the assay buffer. […] Bound [^35S] GTPγS was separated from free radiolabel by filtration. The filter bound radioactivity was determined by liquid scintillation counting.

[2] = In vitro stability in rat kidney homogenate; assay type: in vitro ADME
Summary of the method: (§1)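 Peptide remaining was followed by high-resolution LC-MS of methanol-quenched, centrifuged samples with internal standard. Incubations were at 37° C. over 4 hr, peptides at 5 μM final in rat plasma or in rat liver or kidney homogenate.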

[3] = In vitro stability in rat liver homogenate; assay type: in vitro ADME; conditions: tissue homogenate
Summary of the method: as §1

[4] = In vitro stability in rat plasma; assay type: in vitro ADME
Summary of the method: as §1

[5] = test system: rats with myocardial infarction (MI)-induced heart failure; test: Hemodynamics in rats with MI-induced heart failure (Millar PV loop); assay type: in vivo, Lewis rats; conditions: continuous i.v. infusion, 30 min per dose
Experimental: To assess the cardiovascular effects of modified apelin polypeptides, the polypeptides were administered to rats with myocardial infarction (MI)-induced heart failure. Cardiac function was assessed via the Millar PV loop system.
Male Lewis rats at 2-3 month of age were used for the studies. MI was induced by ligation of the left anterior descending coronary artery (LAD). Echocardiography was performed at 1 week post-MI for animal enrollment. If ejection fraction (EF) was more than 40% and no infarct was identified from echocardiography images, these animals were excluded from the study. A Millar PV loop catheter was inserted into the right common carotid artery and then advanced to the left ventricle (LV) for cardiovascular hemodynamic assessment. The arterial pressure catheter was inserted into a femoral artery for peripheral blood pressure monitoring. Experiments were performed six to seven weeks following induction of MI. The following apelin polypeptides were given intravenously via jugular vein at various doses.
Peptides were continuously infused for 30 min at each dose. At the end of the experiment, the infarct size was verified by gross morphology. FIGS. 6-8 show the results of these experiments. The infarct size (38-39% of LV) was very similar among groups. […] Contractility (dp/dt max), ejection fraction (EF), mean arterial pressure (MAP), and heart rate (HR) changes over baseline are reported at the end of the 30 min infusion period for each polypeptide.

Compound: {H2} [MerPr] (10K mPEG acetamide) Q [NMehArg] P [NMeArg] [aMeLeu] S H K G P [Nle] P [4-Cl-F] {COOH}
- not cleaved (liver homogenate): >90.0 % remaining at 4 hours

Compound: CCCC[C@H](NC(=O)[C@@H]1CCCN1C(=O)CNC(=O)[C@H](CCCCN)NC(=O)[C@H](Cc1c[nH]cn1)NC(=O)[C@H](CO)NC(=O)C(C)(CC(C)C)NC(=O)[C@H](CCCCNC(=N)N)NC(=O)C1(C)CCCN1C(=O)[C@H](CCCNC(=N)N)NC(=O)[C@H](CCC(N)=O)NC(C)=O)C(=O)N1CCC[C@H]1C(=O)N[C@@H](Cc1ccc(Cl)cc1)C(=O)O (some centres unmarked) [compound 69]
- Induce Histamine Release? Human Mast Cells (Human Mast Cells): No

Compound: CC(=O)N[C@H](CCCNC(=N)N)C(=O)N[C@@H](CCC(N)=O)C(=O)N[C@@H](CCCNC(=N)N)C(=O)N1CCC[C@H]1C(=O)N[C@@H](CCCCNC(=N)N)C(=O)N(C)[C@@H](CC(C)C)C(=O)N[C@@H](CO)C(=O)N[C@@H](Cc1c[nH]cn1)C(=O)N[C@@H](CCCCN)C(=O)NCC(=O)N1[C@H](C(=O)N[C@@H](Cc2ccc(I)cc2)C(=O)N2CCC[C@H]2C(=O)N[C@H](Cc2ccc(-c3ccccc3)cc2)C(=O)O)C[C@@H]2CCCC[C@@H]21 [compound 52] (Ac-[dR]QRP[hArg][NMeL]SHKG[Oic][Phe(4-I)]P[dBip]-OH)
- EC50 [1]: 550 nM
- EC50 (rat APJ receptor): 1.14 nM

Compound: CSCC[C@H](NC(=O)[C@@H]1CCCN1C(=O)CNC(=O)[C@H](CCCCN)NC(=O)[C@H](Cc1cnc[nH]1)NC(=O)[C@H](CO)NC(=O)[C@H](CC(C)C)NC(=O)[C@H](CCCNC(=N)N)NC(=O)[C@@H]1CCCN1C(=O)[C@H](CCCNC(=N)N)NC(=O)[C@@H]1CCC(=O)N1)C(=O)N1CCC[C@H]1C(=O)N[C@@H](Cc1ccccc1)C(=O)O [compound 6]
- induction of histamine release from rat mast cells [1]: inactive at the highest concentrations tested
- Stability at 4 hours (% Remaining) Kidney ([2]; rat kidney homogenate, 5 μM peptide, 37° C., 4 hr): <1.0 % Remaining

Compound: CC(=O)N[C@@H](CCCCNC(=N)N)C(=O)N[C@H](CCCNC(=N)N)C(=O)N[C@@H](CCC(N)=O)C(=O)N[C@@H](CCCCNC(=N)N)C(=O)N1CCC[C@H]1C(=O)N[C@H](CCCNC(=N)N)C(=O)N(C)[C@@H](CC(C)C)C(=O)N[C@@H](CO)C(=O)N[C@@H](Cc1c[nH]cn1)C(=O)N[C@@H](CCCCN)C(=O)NCC(=O)N1[C@H](C(=O)N[C@@H](Cc2ccc(I)cc2)C(=O)N2CCC[C@H]2C(=O)N[C@H](Cc2ccc(-c3ccccc3)cc2)C(=O)O)C[C@@H]2CCCC[C@@H]21 [compound 16] (Ac-[hArg][dR]Q[hArg]P[dR][NMeL]SHKG[Oic][Phe(4-I)]P[dBip]-OH)
- remaining at 4 h, 5 μM [3]: 40.7%
- remaining at 4 h, 5 μM [4]: 86.1%
- remaining at 4 h, 5 μM ([2]; rat, tissue homogenate): 44.5%
- hemodynamic function (dp/dt max, EF, MAP, HR) in MI rats [5]: dose-dependent effects

Compound: CCCC[C@H](NC(=O)[C@@H]1CCCN1C(=O)CNC(=O)[C@H](CCCCN)NC(=O)[C@H](Cc1c[nH]cn1)NC(=O)[C@H](CO)NC(=O)[C@H](CC(C)C)NC(=O)[C@H](CCCNC(=N)N)N(C)C(=O)[C@@H]1CCCN1C(=O)[C@H](CCCNC(=N)N)NC(=O)[C@H](CCC(N)=O)NC(=O)COCCOCCNC(=O)COCCOCCNC(=O)CC[C@H](NC(=O)CCC)C(=O)O)C(=O)N1CCC[C@H]1C(=O)N[C@@H](Cc1ccc(Cl)cc1)C(=O)O [compound 491]
- Induce Histamine Release? Human Mast Cells (Human Mast Cells): No
- remaining at 4 h, 5 μM [3]: < 1%
- remaining at 4 h, 5 μM [4]: < 1%

Compound: CCCC[C@H](NC(=O)[C@@H]1CCCN1C(=O)CNC(=O)[C@H](CCCCN)NC(=O)[C@H](Cc1c[nH]cn1)NC(=O)[C@H](CO)NC(=O)[C@H](CC(C)C)NC(=O)[C@H](CCCNC(=N)N)N(C)C(=O)[C@@H]1CCCN1C(=O)[C@H](CCCNC(=N)N)NC(=O)[C@H](CCC(N)=O)NC(C)=O)C(=O)N1CCC[C@H]1C(=O)N[C@@H](Cc1ccc(Cl)cc1)C(=O)O [compound 68]
- Induce Histamine Release? Human Mast Cells (Human Mast Cells): No
- remaining at 4 h, 5 μM [3]: < 1%
- EC50 (rat APJ receptor; rat APJ receptor): 0.384 nM
- remaining at 4 h, 5 μM [4]: 59.6%

Compound: 109 (QRP[hArg][Cha]SHKG[Oic][Nle]P[Phe(4-Cl)]-OH; not fully specified (N-terminus)) [compound 109]
- hemodynamic function (dp/dt max, EF, MAP, HR) in MI rats [5]: dose-dependent effects

Compound: CC[C@H](C)[C@H](N)C(=O)N[C@@H](CCCCN)C(=O)N[C@H]1CSSC[C@@H]2NC(=O)[C@H]([C@@H](C)CC)NC(=O)[C@H](Cc3c[nH]cn3)NC(=O)[C@@H]3CCCN3C(=O)[C@H](CCCCN)NC(=O)[C@H]([C@@H](C)CC)NC(=O)[C@H](C(C)C)NC(=O)[C@H](Cc3c[nH]cn3)NC(=O)[C@H](CCCNC(=N)N)NC(=O)[C@H](CCCCN)NC(=O)[C@H](CSSC[C@@H](C(=O)NCC(=O)N[C@@H](CCCCN)C(=O)N[C@@H](CC(N)=O)C(N)=O)NC(=O)[C@H]([C@@H](C)CC)NC(=O)[C@H](CCCCN)NC(=O)[C@H](CCCNC(=N)N)NC2=O)NC(=O)[C@H](CC(N)=O)NC1=O [MCDP, reference compound] (H-IKCNCKRHVIKPHICRKICGKN-NH2; disulfide 3-15, 5-19 (inferred); N-terminus and C-terminus assumed)
- Cause Histamine Release? [1]: Yes
- EC50 [1]: 520 nM

Compound: CCCCCCCCCCCCC(=O)N[C@@H](CCC(=O)NCCOCCOCC(=O)NCCOCCOCC(=O)N[C@@H](CCC(N)=O)C(=O)N[C@@H](CCCNC(=N)N)C(=O)N1CCC[C@H]1C(=O)N(C)[C@@H](CCCNC(=N)N)C(=O)N[C@@H](CC(C)C)C(=O)N[C@@H](CO)C(=O)N[C@@H](Cc1c[nH]cn1)C(=O)N[C@@H](CCCCN)C(=O)NCC(=O)N1CCC[C@H]1C(=O)N[C@@H](CCCC)C(=O)N1CCC[C@H]1C(=O)N[C@@H](Cc1ccc(Cl)cc1)C(=O)O)C(=O)O [compound 287]
- Induce Histamine Release? Human Mast Cells (Human Mast Cells): Yes
- remaining at 4 h, 5 μM [3]: < 1%
- remaining at 4 h, 5 μM [4]: 18%

Compound: {H2} [MerPr] (10K mPEG acetamide) Q r P [hArg] [aMeLeu] S H K G P [Nle] P [4-Cl-F] {COOH}
- not cleaved (liver homogenate): >90.0 % remaining at 4 hours

Compound: {Acetyl-NH} Q R P [NMeArg] [Cha] S H K G [Oic] [Nle] [Aib] [4-Cl—F] {COOH} (Ac-QRP[NMeR][Cha]SHKG[Oic][Nle][Aib][Phe(4-Cl)]-OH) [SEQ ID NO: 92]
- induction of histamine release from rat mast cells [1]: positive

Compound: CCCC[C@H](NC(=O)[C@@H]1CCCN1C(=O)CNC(=O)[C@H](CCCCN)NC(=O)[C@H](Cc1c[nH]cn1)NC(=O)[C@H](CO)NC(=O)[C@H](CC(C)C)NC(=O)[C@H](CCCNC(=N)N)N(C)C(=O)[C@@H]1CCCN1C(=O)[C@H](CCCNC(=N)N)NC(=O)[C@H](CCC(N)=O)NC(=O)COCCOCCNC(=O)COCCOCCNC(=O)CC[C@H](NC(=O)CCC)C(=O)O)C(=O)N1CCC[C@H]1C(=O)N[C@@H](Cc1ccc(Cl)cc1)C(=O)O [SEQ ID NO: 491]
- induction of histamine release from rat mast cells [1]: less mast cell degranulation activity
